{"source": "patent US20100063102A1", "about": "“TREATMENT OF FAECAL INCONTINENCE” (UROGENE, priority 2007, published 2010)", "test_system": "striated anal sphincter", "test": "Effect on the electromyographic activity of the rabbit striated anal sphincter under bladder irritation (SS-EMG)", "format": "in vivo", "protocol": "The effect of the HP749 compound was tested on rabbits under conditions of bladder irritation. Female rabbits of the New Zealand race weighing from 2.5 to 3.5 kg were used. The bladder irritation was caused by transcontinuous bladder infusion of 0.5% acetic acid. Under these conditions, the striated anal sphincter electromyography is increased. Throughout the experiment, the animal was placed in the supine position and anaesthetized with 2-3% of halothane. The striated sphincter electromyography (SS-EMG) was carried out using two electrodes (30-gauge needle) placed percutaneously in the striated anal sphincter, approximately 5-10 mm from the anus (laterally). The electric signals were amplified on an ML136 preamplifier (AD Instruments, PanLab, Barcelona, Spain), filtered below 1 Hz and above 5 KHz and presented in a PowerLab window. The striated sphincter electromyography (SS-EMG) was recorded continuously during the cystometry. Cumulative doses of the HP749 compound (0, 1, 3 and 5 mg/kg) were administered through an intravenous canula connected to the ear vein. The medicaments in saline solution were freshly prepared before each experiment and administered in a volume of 1 ml, followed by rinsing with 1 ml of physiological saline solution. The results were expressed by the mean±the standard error of the […]. The electromyographic values obtained under conditions of irritation after administration of a placebo were used as control values. The effects of the HP749 compound were analysed and compared with the control values by means of a Wilcoxon test. The results obtained were considered to be significant when p<0.05.", "note": "Entries after “also recorded” stand apart in the source; their conditions may differ.", "data": [{"smiles": "CCCN(c1ccncc1)n1ccc2ccccc21", "note": "[HP749, N-propyl-N-(4-pyridinyl)-1H-indol-1-amine]", "values": [{"measurement": "mean increase in the EMG activity compared with the control value", "setting": "anaesthetized female New Zealand rabbits, bladder irritation with 0.5% acetic acid, cumulative i.v. doses 1, 3 and 5 mg/kg, control = placebo, p<0.01", "value": 155, "unit": "%"}, {"measurement": "effect on the electromyographic (EMG) activity of the striated anal sphincter", "setting": "at all the doses (1, 3 and 5 mg/kg i.v.), FIG. 1, Wilcoxon test vs placebo control", "value": "significant effect; also recorded: powerful effect"}, {"measurement": "dose at which the effect on the external anal sphincter appeared to have reached its maximum", "setting": "rabbits, i.v., lowest dose tested", "value": 1, "unit": "mg/kg"}]}]}
